How the values were obtained:
[1] = system: KRas G12D-mediated Phosphorylation of ERK; assay: Inhibition of KRas G12D-mediated Phosphorylation of ERK in AGS cells; assay type: cell-based; settings: Homo sapiens; AGS cells expressing G12D, 3 hours, phospho-ERK normalized to GAPDH
Experimental: AGS cells (ATCC CRL-1739) expressing G12D were grown in DMEM medium supplemented with 10% fetal bovine serum, 10 mM HEPES, and Penicillin/Streptomycin. Cells were plated in tissue culture treated 96 well plates at a density of 40,000 cells/well and allowed to attach for 12-14 hours. Diluted compounds were then added in a final concentration of 0.5% DMSO. After 3 hours, the medium was removed, 150 μl of 4.0% formaldehyde was added and the plates incubated at room temperature for 20 minutes. The plates were washed with PBS, and permeabilized with 150 μL of ice cold 100% methanol for 10 minutes. Non-specific antibody binding to the plates was blocked using 100 μL Licor blocking buffer (Li-Cor Biotechnology, Lincoln NE) for 1 hour at room temperature.
The amount of phospho-ERK was determined using an antibody specific for the phosphorylated form of ERK and compared to the amount of GAPDH. Primary antibodies used for the detection were added as follows: Phospho-ERK(Cell Signaling cs-9101) diluted 1:500 and GAPDH(Millipore MAB374) diluted 1:5000 in Licor block+0.05% Tween 20. The plates were incubated for 2 hours at room temperature. The plates were washed with PBS+0.05% Tween 20.
Secondary antibodies used to visualize primary antibodies were added as follows: Anti-rabbit-680 diluted 1:1000 and Anti-mouse-800 diluted 1:1000 both in Licor block+0.05% Tween20, and were incubated for 1 hour at room temperature. The plates were washed with PBS+0.05% Tween 20. A 100 μl aliquot of PBS was added to each well and the plates were read on a Li-Cor Odyssey CLX plate reader.
The phospho-ERK(Thr202/Tyr204 signal was normalized to the GAPDH signal for each well and percent of DMSO control values were calculated. IC50 values were generated using a 4-parameter fit of the dose response curve.

KRas G12D = KRas G12D (Homo sapiens, UniProt P01116, G12D); assay: KRas G12D Binding Assay (TR-FRET displacement of labeled tracer); set-up: corresponding to amino acids 1:169, produced at Array BioPharma; biotin (protein is biotinylated); settings: TR-FRET displacement of Cy5 labelled tracer, biotinylated GDP-loaded KRAS G12D (aa 1:169), 60 minute incubation at 22° C.
Chain of KRas G12D (P01116 1-169 isoform P01116-2 G12D): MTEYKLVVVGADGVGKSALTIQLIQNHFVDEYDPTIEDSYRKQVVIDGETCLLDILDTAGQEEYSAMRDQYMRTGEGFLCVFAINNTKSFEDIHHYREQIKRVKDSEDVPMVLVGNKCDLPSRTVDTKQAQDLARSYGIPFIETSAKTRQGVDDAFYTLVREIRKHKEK
Experimental: This Example illustrates that exemplary compounds of the present invention bind to KRas G12D and are capable of displacing a labeled tracer ligand occupying the KRas G12D binding site.
The ability of a compound to bind to KRAS G12D was measured using a TR-FRET displacement assay. Biotinylated GDP-loaded recombinant human KRAS G12D (corresponding to amino acids 1:169, produced at Array BioPharma) was incubated with a custom-made Cy5 labelled tracer, europium labelled streptavidin and compound (2% DMSO final) in buffer (50 mM HEPES [pH 7.5], 5 mM MgCl2, 0.005% Tween-20 & 1 mM DTT). After a 60 minute incubation at 22° C., the reaction was measured using a PerkinElmer EnVision multimode plate reader via TR-FRET dual wavelength detection, and the percent of control (POC) calculated using a ratiometric emission factor. […] The POC values were fit to a 4-parameter logistic curve and the IC50 value was determined as the concentration where the curve crosses 50 POC.

SMILES | IC50 [1] | IC50 (KRas G12D)
CCc1cccc2cccc(N3CCc4c(nc(OCC56CCCN5CC(F)C6)nc4N4C[C@H]5CC[C@@H](C4)N5)C3)c12 (mixture of isomers) [Example 9, 4-((1R,5S)-3,8-diazabicyclo[3.2.1]octan-3-yl)-7-(8-ethylnaphthalen-1-yl)-2-((2-fluorotetrahydro-1H-pyrrolizin-7a(5H)-yl)methoxy)-5,6,7,8-tetrahydropyrido[3,4-d]pyrimidine (racemic, trans)] | 1660 nM | 3.1 nM
Oc1cc(N2CCc3c(nc(OCC45CCCN4C[C@H](F)C5)nc3N3CC4CCC(C3)N4)C2)c2ccccc2c1 (mixture of isomers) [Example 47, 4-(4-((1R,5S)-3,8-diazabicyclo[3.2.1]octan-3-yl)-2-((2-fluorotetrahydro-1H-pyrrolizin-7a(5H)-yl)methoxy)-5,8-dihydropyrido[3,4-d]pyrimidin-7(6H)-yl)naphthalen-2-ol] | 537 nM | 1 nM
CCc1c(F)ccc2cccc(N3CCc4c(nc(OCC56CCCN5CCC6)nc4N4C[C@H]5CC[C@@H](C4)N5)C3)c12 [Example 19, 4-((1R,5S)-3,8-diazabicyclo[3.2.1]octan-3-yl)-7-(8-ethyl-7-fluoronaphthalen-1-yl)-2-((tetrahydro-1H-pyrrolizin-7a(5H)-yl)methoxy)-5,6,7,8-tetrahydropyrido[3,4-d]pyrimidine] | 324 nM | 1.8 nM
CN(C)C(=O)OC[C@H]1CCC2(COc3nc4c(c(N5CC6CCC(C5)N6)n3)CCN(c3cccc(Cl)c3C3CC3)C4)CCCN12 (stereo partly drawn) [Example 33, (7a-(((4-((1R,5S)-3,8-diazabicyclo[3.2.1]octan-3-yl)-7-(3-chloro-2-cyclopropylphenyl)-5,6,7,8-tetrahydropyrido[3,4-d]pyrimidin-2-yl)oxy)methyl)hexahydro-1H-pyrrolizin-3-yl)methyl dimethylcarbamate (trans enantiomers)] | 5560 nM | 50.2 nM
Oc1cc(N2CCc3c(nc(OC[C@@]45CCCN4C[C@H](F)C5)nc3N3C[C@H]4CC[C@@H](C3)N4)C2)c2c(Cl)cccc2c1 [Example 117, 4-(4-((1R,5S)-3,8-diazabicyclo[3.2.1]octan-3-yl)-2-(((2R,7aS)-2-fluorohexahydro-1H-pyrrolizin-7a-yl)methoxy)-5,6-dihydropyrido[3,4-d]pyrimidin-7(8H)-yl)-5-chloronaphthalen-2-ol] | 76 nM | 0.7 nM
CCc1cccc2cc(O)cc(N3CCc4c(nc(OC[C@@]56CCCN5C[C@H](F)C6)nc4N4C[C@H]5CC[C@@H](C4)N5)C3)c12 [Example 7, 4-(4-((1R,5S)-3,8-diazabicyclo[3.2.1]octan-3-yl)-2-(((2R,7aS)-2-fluorotetrahydro-1H-pyrrolizin-7a(5H)-yl)methoxy)-5,8-dihydropyrido[3,4-d]pyrimidin-7(6H)-yl)-5-ethylnaphthalen-2-ol] | 13 nM | 1 nM
CCc1cccc2cccc(N3CCc4c(nc(OC[C@]56CCCN5[C@@H](COC(=O)NCCOC)CC6)nc4N4C[C@H]5CC[C@@H](C4)N5)C3)c12 [Example 108, ((3R,7aR)-7a-(((4-((1R,5S)-3,8-diazabicyclo[3.2.1]octan-3-yl)-7-(8-ethylnaphthalen-1-yl)-5,6,7,8-tetrahydropyrido[3,4-d]pyrimidin-2-yl)oxy)methyl)hexahydro-1H-pyrrolizin-3-yl)methyl (2-methoxyethyl)carbamate] | 585 nM | 2 nM
CCc1cccc2cccc(N3CCc4c(nc(OC[C@]56CCCN5[C@@H](COC(=O)N(C)CCO)CC6)nc4N4C[C@H]5CC[C@@H](C4)N5)C3)c12 [Example 107, ((3R,7aR)-7a-(((4-((1R,5S)-3,8-diazabicyclo[3.2.1]octan-3-yl)-7-(8-ethylnaphthalen-1-yl)-5,6,7,8-tetrahydropyrido[3,4-d]pyrimidin-2-yl)oxy)methyl)hexahydro-1H-pyrrolizin-3-yl)methyl (2-hydroxyethyl)(methyl)carbamate] | 408 nM | 2 nM
CCc1cccc2cccc(N3CCc4c(nc(OC[C@]56CCCN5[C@@H](COC(=O)N5CCCC5)CC6)nc4N4C[C@H]5CC[C@@H](C4)N5)C3)c12 [Example 99, ((3R,7aR)-7a-(((4-((1R,5S)-3,8-diazabicyclo[3.2.1]octan-3-yl)-7-(8-ethylnaphthalen-1-yl)-5,6,7,8-tetrahydropyrido[3,4-d]pyrimidin-2-yl)oxy)methyl)hexahydro-1H-pyrrolizin-3-yl)methyl pyrrolidine-1-carboxylate] | 559 nM | 2.7 nM
CCc1cccc2cc(O)cc(N3CCc4c(nc(OCC56CCCN5CCC6)nc4N4C[C@H]5CC[C@@H](C4)N5)C3)c12 [Example 14, 4-(4-((1R,5S)-3,8-diazabicyclo[3.2.1]octan-3-yl)-2-((tetrahydro-1H-pyrrolizin-7a(5H)-yl)methoxy)-5,8-dihydropyrido[3,4-d]pyrimidin-7(6H)-yl)-5-ethylnaphthalen-2-ol] | 21 nM | 1.1 nM
CNC(=O)OC[C@H]1CCC2(COc3nc4c(c(N5CC6CCC(C5)N6)n3)CCN(c3cccc5cccc(F)c35)C4)CCCN12 (stereo partly drawn) [Example 34, (7a-(((4-((1R,5S)-3,8-diazabicyclo[3.2.1]octan-3-yl)-7-(8-fluoronaphthalen-1-yl)-5,6,7,8-tetrahydropyrido[3,4-d]pyrimidin-2-yl)oxy)methyl)hexahydro-1H-pyrrolizin-3-yl)methyl methylcarbamate (trans enantiomers)] | 3910 nM | 111 nM
CNC(=O)OCC1CCC2(COc3nc4c(c(N5C[C@H]6CC[C@@H](C5)N6)n3)CCN(c3cccc5cccc(Cl)c35)C4)CCCN12 (mixture of isomers) [Example 100, (7a-(((4-((1R,5S)-3,8-diazabicyclo[3.2.1]octan-3-yl)-7-(8-chloronaphthalen-1-yl)-5,6,7,8-tetrahydropyrido[3,4-d]pyrimidin-2-yl)oxy)methyl)hexahydro-1H-pyrrolizin-3-yl)methyl methylcarbamate] | 1310 nM | 9.7 nM
c1ccc2c(N3CCc4c(nc(OCC56CCCN5CCC6)nc4N4C[C@H]5CC[C@@H](C4)N5)C3)cccc2c1 [Example 114, 4-((1R,5S)-3,8-diazabicyclo[3.2.1]octan-3-yl)-2-((hexahydro-1H-pyrrolizin-7a-yl)methoxy)-7-(naphthalen-1-yl)-5,6,7,8-tetrahydropyrido[3,4-d]pyrimidine] | > 16700 nM | 34.2 nM
COC[C@@H]1C[C@@H]2CN(c3nc(OC[C@@H]4CCCN4C)nc4c3CCN(c3cccc5cccc(Cl)c35)C4)C[C@H]1N2 (single isomer, unassigned) [Example 93] | > 16700 nM | 360 nM
CCc1cccc2cccc(N3CCc4c(nc(OC[C@@]56CCCN5C[C@H](F)C6)nc4[C@H]4C[C@H]5CC[C@@H](C4)N5)C3)c12 [Example 121, 4-((1R,3r,5S)-8-azabicyclo[3.2.1]octan-3-yl)-7-(8-ethylnaphthalen-1-yl)-2-(((2R,7aS)-2-fluorotetrahydro-1H-pyrrolizin-7a(5H)-yl)methoxy)-5,6,7,8-tetrahydropyrido[3,4-d]pyrimidine] | 2360 nM | 8.7 nM
CN1CCC[C@H]1COc1nc2c(c(N3C[C@H]4C[C@H](O)[C@@H](C3)N4)n1)CCN(c1cccc3cccc(Cl)c13)C2 [Example 96, (1R,5R,6S)-3-(7-(8-chloronaphthalen-1-yl)-2-(((S)-1-methylpyrrolidin-2-yl)methoxy)-5,6,7,8-tetrahydropyrido[3,4-d]pyrimidin-4-yl)-3,8-diazabicyclo[3.2.1]octan-6-ol] | > 16700 nM | 331 nM
CCc1cccc2cccc(N3CCc4c(nc(OC[C@]56CCCN5[C@@H](COC(=O)NC)CC6)nc4N4C[C@H]5CC[C@@H](C4)N5)C3)c12 [Example 18, ((3R,7aR)-7a-(((4-((1R,5S)-3,8-diazabicyclo[3.2.1]octan-3-yl)-7-(8-ethylnaphthalen-1-yl)-5,6,7,8-tetrahydropyrido[3,4-d]pyrimidin-2-yl)oxy)methyl)hexahydro-1H-pyrrolizin-3-yl)methyl methylcarbamate] | 70 nM | 2 nM

Source: patent publication US12686692B2, “KRas G12D inhibitors” (Mirati Therapeutics, Inc., priority 2020, dated 2026)
